Read-outs that look alike come from different tables or passages of the source.
Tests used:
Assay type in all cases: in vivo
Rhipicephalus sanguineus = Rhipicephalus sanguineus in vitro contact test with adult brown dog ticks; details: application rate 5 μg/cm^2 (=500 g/ha); after 48 h
Method: Rhipicephalus sanguineus—In Vitro Contact Tests with Adult Brown Dog Ticks
(§1) For the coating of the test tubes, 9 mg of active compound are first dissolved in 1 ml of acetone p.a. and then diluted to the desired concentration with acetone p.a. 250 μl of the solution are distributed homogeneously on the inner walls and the base of a 25 ml glass tube by turning and rocking on an orbital shaker (rocking rotation at 30 rpm for 2 h). With 900 ppm of active compound solution and internal surface area 44.7 cm^2, given homogeneous distribution, an area-based dose of 5 μg/cm^2 is achieved.
After the solvent has evaporated off, the tubes are populated with 5-10 adult dog ticks (Rhipicephalus sanguineus), sealed with a perforated plastic lid and incubated in a horizontal position in the dark at room temperature and ambient humidity. After 48 h, efficacy is determined. To this end, the ticks are knocked to the base of the tube and incubated on a hotplate at 45-50° C. for not more than 5 min. Ticks which remain motionless on the base or move in such an uncoordinated manner that they are unable to deliberately avoid the heat by climbing upwards are considered to be dead or moribund.
An efficacy of 100% means that all the ticks were dead or moribund. 0% efficacy means that none of the ticks were harmed.

Ctenocephalides felis [1] = assay: Ctenocephalides felis in vitro contact test with adult cat fleas; details: application rate 5 μg/cm^2 (=500 g/ha); after 48 h
Method: Ctenocephalides felis—In Vitro Contact Tests with Adult Cat Fleas
as §1
After the solvent has evaporated off, the tubes are populated with 5-10 adult cat fleas (Ctenocephalides felis), sealed with a perforated plastic lid and incubated in a horizontal position at room temperature and ambient humidity. After 48 h, efficacy is determined. To this end, the tubes are stood upright and the fleas are knocked to the base of the tube. Fleas which remain motionless at the base or move in an uncoordinated manner are considered to be dead or moribund.
100% efficacy means that all the fleas were dead or moribund. 0% efficacy means that no fleas were harmed.

Spodoptera frugiperda = Spodoptera frugiperda spray test; details: for pest or weed control at 500 g/ha: Spodoptera frugiperda, 168 h, read-out: efficacy
Method: Spodoptera frugiperda—Spray Test
(§2) Solvent: 78.0 parts by weight of acetone • • 1.5 parts by weight of dimethylformamide
(§3) Emulsifier: alkylaryl polyglycol ether
(§4) To produce a suitable active compound formulation, 1 part by weight of active compound is dissolved with the specified parts by weight of solvent and made up to the desired concentration with water containing an emulsifier concentration of 1000 ppm. To produce further test concentrations, the formulation is diluted with emulsifier-containing water.
Leaf discs of maize (Zea mays) are sprayed with an active compound formulation of the desired concentration and, after drying, populated with caterpillars of the fall armyworm (Spodoptera frugiperda).
After 7 days, the efficacy in % is determined. 100% means that all the caterpillars have been killed; 0% means that no caterpillar has been killed.

Ctenocephalides felis [2] = assay: Ctenocephalides felis oral test; details: application rate 100 ppm in citrated cattle blood; after 2 days
Method: Ctenocephalides felis—Oral Test
(§5) Solvent: dimethyl sulfoxide
To produce a suitable active compound formulation, 10 mg of active compound are mixed with 0.5 ml of dimethyl sulfoxide. Dilution with citrated cattle blood gives the desired concentration.
About 20 unfed adult cat fleas (Ctenocephalides felis) are placed into a chamber which is closed at the top and bottom with gauze. A metal cylinder whose bottom end is closed with parafilm is placed onto the chamber. The cylinder contains the blood/active compound formulation, which can be imbibed by the fleas through the parafilm membrane.
After 2 days, the kill in % is determined. 100% means that all of the fleas have been killed; 0% means that none of the fleas have been killed.

[3] = tested on: Anopheles funestus strain FUMOZ-R; assay: Anopheles test (ANPHFU surface treatment); details: read-out: efficacy (mortality in %)
Method: Anopheles Test (ANPHFU Surface Treatment)
(§6) Solvent: acetone+2000 ppm rapeseed oil methyl ester (RME)
(§7) To produce an appropriate active compound formulation, the active compound is dissolved in the solvent (2 mg/ml). The active compound formulation is pipetted onto a glazed tile and, after it has dried off, adult mosquitoes of the species Anopheles funestus strain FUMOZ-R (Hunt et al., Med Vet Entomol. 2005 Sep.; 19 (3):271-5) are placed onto the treated tile. The exposure time is 30 minutes.
(§8) 24 hours after contact with the treated surface, mortality in % is determined. 100% means that all mosquitoes have been killed; 0% means that none of the mosquitoes have been killed.

Phaedon cochleariae = Phaedon cochleariae spray test; details: for pest or weed control at 500 g/ha: Phaedon cochleariae, 168 h, read-out: efficacy
Method: Phaedon cochleariae—Spray Test
as §2, §3, §4
Discs of Chinese cabbage leaves (Brassica pekinensis) are sprayed with an active compound formulation of the desired concentration and, after drying, populated with larvae of the mustard beetle (Phaedon cochleariae).
After 7 days, the efficacy in % is determined. 100% means that all the beetle larvae have been killed; 0% means that no beetle larvae have been killed.

[4] = tested on: Aedes aegypti strain MONHEIM; assay: Aedes test (AEDSAE surface treatment); details: read-out: efficacy (mortality in %)
Method: Aedes Test (AEDSAE Surface Treatment)
as §6
To produce an appropriate active compound formulation, the active compound is dissolved in the solvent (2 mg/ml). The active compound formulation is pipetted onto a glazed tile and, after it has dried off, adult mosquitoes of the species Aedes aegypti strain MONHEIM are placed onto the treated tile. The exposure time is 30 minutes. 24 hours after contact with the treated surface, mortality in % is determined. 100% means that all mosquitoes have been killed; 0% means that none of the mosquitoes have been killed.

[5] = tested on: Anopheles gambiae strain RSPH (homozygot kdr); assay: Anopheles test (ANPHGB surface treatment); details: read-out: efficacy (mortality in %)
Method: Anopheles Test (ANPHGB Surface Treatment)
as §6
as §7, with “gambiae” for “funestus”, “RSPH (homozygot kdr)” for “FUMOZ-R (Hunt et al., Med Vet Entomol. 2005 Sep.; 19 (3):271-5)”
as §8

Tetranychus urticae = Tetranychus urticae spray test, OP-resistant; details: application rate 500 g/ha; after 6 days
Method: Tetranychus urticae—Spray Test, OP-Resistant
Solvent: 78.0 Parts by Weight of Acetone • • 1.5 parts by weight of dimethylformamide
as §3, §4
Discs of bean leaves (Phaseolus vulgaris) infested with all stages of the greenhouse red spider mite (Tetranychus urticae) are sprayed with an active compound formulation of the desired concentration.
After 6 days, the efficacy in % is determined. 100% means that all the spider mites have been killed; 0% means that no spider mites have been killed.

Lucilia cuprina = Lucilia cuprina test; details: application rate 100 ppm; L1 larvae; after 2 days
Method: as §5
To produce a suitable active compound formulation, 10 mg of active compound are mixed with 0.5 ml of dimethyl sulfoxide, and the concentrate is diluted with water to the desired concentration.
About 20 L1 larvae of the Australian sheep blowfly (Lucilia cuprina) are transferred into a test vessel containing minced horsemeat and the active compound formulation of the desired concentration.
After 2 days, the kill in % is determined. 100% means that all the larvae have been killed; 0% means that no larvae have been killed.

Boophilus microplus = Boophilus microplus injection test; details: for pest or weed control at 0.02 mg: Rhipicephalus microplus, 168 h
Method: Boophilus microplus—Injection Test
as §5
To produce a suitable active compound formulation, 10 mg of active compound are mixed with 0.5 ml of solvent and the concentrate is diluted to the desired concentration with solvent.
1 μl of the active compound solution is injected into the abdomen of 5 engorged adult female cattle ticks (Boophilus microplus). The animals are transferred into dishes and kept in a climate-controlled room.
(§9) Efficacy is assessed after 7 days by laying of fertile eggs. Eggs which are not visibly fertile are stored in a climate-controlled cabinet until the larvae hatch after about 42 days. An efficacy of 100% means that none of the ticks has laid any fertile eggs; 0% means that all the eggs are fertile.

[6] = tested on: cattle ticks (Boophilus microplus) Parkhurst strain, SP-resistant; assay: Boophilus microplus dip test; details: application rate 100 ppm, after 7 days
Method: Boophilus microplus—Dip Test
Test animals: cattle ticks (Boophilus microplus) Parkhurst strain, SP-resistant
as §5
10 mg of active compound are dissolved in 0.5 ml of dimethyl sulfoxide. To produce a suitable formulation, the active compound solution is diluted with water to the concentration desired in each case.
This active compound formulation is pipetted into tubes. 8-10 engorged adult female cattle ticks (Boophilus microplus) are transferred into a further tube with holes. The tube is immersed into the active compound formulation, and all the ticks are completely wetted. After the liquid has run out, the ticks are transferred on filter disks into plastic dishes and stored in a climate-controlled room.
as §9

[7] = read-out: efficacy (laying of fertile eggs), application rate 20 μg/animal, after 7 days
[8] = application rate 500 g/ha, after 7 days
[9] = application rate 20 μg/animal, after 7 days
[10] = application rate 20 mg/m^2, exposure 30 minutes, 24 hours after contact

SMILES | efficacy (ticks dead or moribund) (Rhipicephalus sanguineus) | efficacy (fleas dead or moribund) (Ctenocephalides felis [1]) | pest or weed control at 500 g/ha (Spodoptera frugiperda) | mortality at 20 mg/m2 [3] | mortality at 100 mg/m2 [3] | pest or weed control at 500 g/ha (Phaedon cochleariae) | mortality at 20 mg/m2 [4] | mortality at 100 mg/m2 [4] | mortality at 20 mg/m2 [5] | mortality at 100 mg/m2 [5] | efficacy (Tetranychus urticae) | efficacy (kill in %) (Lucilia cuprina) | pest or weed control at 0.02 mg (Boophilus microplus; [7]) | efficacy (Spodoptera frugiperda; [8]) | efficacy (laying of fertile eggs) [6] | efficacy (laying of fertile eggs) (Boophilus microplus; [9]) | other results
CON(C)CCOc1ccc(COc2ccc(Cl)c3ccccc23)cn1 [Example 2, 2-[(5-{[(4-chloro-1-naphthyl)oxy]methyl}pyridin-2-yl)oxy]-N-methoxy-N-methylethanamine] | 100% | 100% | 100% | 80 to 100% | 80 to 100% | 100% | 80 to 100% | 80 to 100% | 80 to 100% | 80 to 100% | 90% | 100% | 100% |  |  |  | efficacy (kill in %) (Ctenocephalides felis [2]): 80%
CON(C)CCOc1ccc(COc2ccc(Cl)c3ccccc23)c(F)n1 [Example 3, 2-[(5-{[(4-chloro-1-naphthyl)oxy]methyl}-6-fluoropyridin-2-yl)oxy]-N-methoxy-N-methylethanamine] |  |  |  | 80 to 100% | 80 to 100% |  |  | 80 to 100% | 80 to 100% | 80 to 100% |  |  |  |  |  |  | 
N#CCN1CCC(Oc2ccc(COc3ccc(Cl)c4ccccc34)cn2)C1 (stereo not drawn) [Example 5, {3-[(5-{[(4-chloro-1-naphthyl)oxy]methyl}pyridin-2-yl)oxy]pyrrolidin-1-yl}acetonitrile] |  |  | 83% | 80 to 100% |  | 100% |  |  | 80 to 100% | 80 to 100% |  | 100% | 100% |  |  |  | 
CON(C)CCOc1ccc(COc2cccc3c(Cl)c(Cl)ccc23)nc1 [Example 16] | 100% | 100% |  |  |  |  |  |  |  |  |  | 100% |  | 83% | 95% | 100% | efficacy (Phaedon cochleariae; [8]): 83%
CON(C)CCOc1cnc(COc2ccc3oc4ccccc4c3c2)c(C)c1 [Example 30, 2-({6-[(dibenzo[b,d]furan-2-yloxy)methyl]-5-methylpyridin-3-yl}oxy)-N-methoxy-N-methylethanamine] |  |  |  | 80 to 100% |  | 83% | 80 to 100% |  | 80 to 100% |  | 100% |  | 100% |  |  |  | 
COc1cc(OCc2ncc(OCCN(C)OC)cc2F)ccc1Cl [Example 58] |  |  |  |  |  |  |  |  |  |  | 100% |  |  | 100% | 95% | 100% | efficacy (Phaedon cochleariae; [8]): 100%
CON(C)CCOc1cnc(COc2ccc(F)c(-c3ccccc3)c2)c(F)c1 [Example 71, 2-[(5-fluoro-6-{[(6-fluorobiphenyl-3-yl)oxy]methyl}pyridin-3-yl)oxy]-N-methoxy-N-methylethanamine] | 100% | 100% |  |  |  |  |  |  |  |  |  | 100% |  |  |  |  | pest or weed control at 500 g/ha (Spodoptera frugiperda; [8]): 100%; mortality at 20 mg/m2 [3, 10]: 80 to 100%; pest or weed control at 500 g/ha (Phaedon cochleariae; [8]): 83%; mortality at 20 mg/m2 [4, 10]: 80 to 100%; mortality at 20 mg/m2 [5, 10]: 80 to 100%; pest or weed control at 0.02 mg (Boophilus microplus; application rate 20 μg/animal, after 7 days, read-out: efficacy (laying of fertile eggs)): 100%
COc1cc(OCc2ncc(OCCN(C)OC)cc2F)ccc1Br [Example 86] | 100% | 100% |  |  |  |  |  |  |  |  |  |  |  | 83% | 100% | 100% | 
COc1cc(OCCN(C)OC)cnc1COc1ccc2oc3ccccc3c2c1 [Example 90, 2-({6-[(dibenzo[b,d]furan-2-yloxy)methyl]-5-methoxypyridin-3-yl}oxy)-N-methoxy-N-methylethanamine] |  |  | 83% |  | 80 to 100% |  | 80 to 100% | 80 to 100% |  | 80 to 100% |  | 80% | 100% |  |  |  | 
CCOc1nc(COc2cccc3c(Cl)c(Cl)ccc23)ccc1OCCN(C)OC [Example 97, 2-[(6-{[(5,6-dichloro-1-naphthyl)oxy]methyl}-2-ethoxypyridin-3-yl)oxy]-N-methoxy-N-methylethanamine] |  |  |  |  |  |  |  |  |  |  |  |  |  |  |  |  | mortality at 20 mg/m2 [4, 10]: 80 to 100%
